Converted amounts (≈) assume the structure as drawn. Read-outs that look alike come from different tables or passages of the source.
Columns and labels:
[1] = cited from earlier work
[2] = Solubility trials: saturation concentration of the oxazaphosphorine in water / aqueous urea solution; details: for pH-Wert: saturated Ifosfamid solution
[3] = water, Sättigungskonzentration in Wasser, in Wasser

## O=P1(N(CCCl)CCCl)NCCCO1 (stereo not shown) [Cyclophosphamid]
[1]; 2%ige (G/V) wäßrige Cyclophosphamidlösungen, 2 bis 8°C, nach 17 Wochen, 171360 min
  Wirkstoffverlust: ≤ 10%
[1]; 2%ige (G/V) wäßrige Cyclophosphamidlösungen, Raumtemperatur, nach 7 Tagen
  Wirkstoffverlust: ≤ 10%
[2]; aqueous urea solution, Cyclophosphamid-Endkonzentration, Harnstoff-Startkonzentration 10 % (G/V), Harnstoff-Endkonzentration 9,1 % (G/G)
  solubility: 87 mg/mL (≈ 333 mM)
[2]; aqueous urea solution, Cyclophosphamid-Endkonzentration, Harnstoff-Startkonzentration 20 % (G/V), Harnstoff-Endkonzentration 17,0 % (G/G)
  solubility: 112 mg/mL (≈ 429 mM)
[2]; aqueous urea solution, Cyclophosphamid-Endkonzentration, Harnstoff-Startkonzentration 30 % (G/V), Harnstoff-Endkonzentration 24,2 % (G/G)
  solubility: 136 mg/mL (≈ 521 mM)
[2]; aqueous urea solution, Cyclophosphamid-Endkonzentration, Harnstoff-Startkonzentration 40 % (G/V), Harnstoff-Endkonzentration 30,3 % (G/G)
  solubility: 172 mg/mL (≈ 659 mM)
[2]; aqueous urea solution, Cyclophosphamid-Endkonzentration, Harnstoff-Startkonzentration 45 % (G/V), Harnstoff-Endkonzentration 37,3 % (G/G)
  solubility: 170 mg/mL (≈ 651 mM)
[2]; aqueous urea solution, Cyclophosphamid-Endkonzentration, Harnstoff-Startkonzentration 50 % (G/V), Harnstoff-Endkonzentration 45,2 % (G/G)
  solubility: 152 mg/mL (≈ 582 mM)
[2]; aqueous urea solution, Cyclophosphamid-Sättigungskonzentration, with Harnstoff, up to Harnstoffstartkonzentration 50% (G/V)
  solubility: ≤ 170 mg/mL
[2]; water, Cyclophosphamid-Endkonzentration, Harnstoff-Startkonzentration 0 % (G/V), Harnstoff-Endkonzentration 0 % (G/G)
  solubility: 61 mg/mL (≈ 234 mM)
[2]; [3]
  solubility: ~60 mg/mL (≈ 230 mM)

## O=P1(NCCCl)OCCCN1CCCl (stereo not shown) [Ifosfamid]
[1]; 5%ige und 10%ige (G/V) wäßrige Ifosfamidlösungen, 2 bis 8°C, nach 17 Wochen, 171360 min
  Wirkstoffverlust: ≤ 10%
[1]; 5%ige und 10%ige (G/V) wäßrige Ifosfamidlösungen, Raumtemperatur, nach 6 Wochen, 60480 min
  Wirkstoffverlust: ≤ 10%
[2]; aqueous urea solution, Ifosfamid-Endkonzentration, Harnstoff-Startkonzentration 1,0 % (G/V), Harnstoff-Endkonzentration 0,8 % (G/G)
  solubility: 128 mg/mL (≈ 490 mM)
[2]; aqueous urea solution, Ifosfamid-Endkonzentration, Harnstoff-Startkonzentration 2,0 % (G/V), Harnstoff-Endkonzentration 1,6 % (G/G)
  solubility: 132 mg/mL (≈ 506 mM)
[2]; aqueous urea solution, Ifosfamid-Endkonzentration, Harnstoff-Startkonzentration 3,0 % (G/V), Harnstoff-Endkonzentration 2,4 % (G/G)
  solubility: 139 mg/mL (≈ 532 mM)
[2]; aqueous urea solution, Ifosfamid-Endkonzentration, Harnstoff-Startkonzentration 4,0 % (G/V), Harnstoff-Endkonzentration 3,2 % (G/G)
  solubility: 147 mg/mL (≈ 563 mM)
[2]; aqueous urea solution, Ifosfamid-Endkonzentration, Harnstoff-Startkonzentration 5,0 % (G/V), Harnstoff-Endkonzentration 3,8 % (G/G)
  solubility: 153 mg/mL (≈ 586 mM)
[2]; aqueous urea solution, Ifosfamid-Endkonzentration, Harnstoff-Startkonzentration 6,0 % (G/V), Harnstoff-Endkonzentration 4,4 % (G/G)
  solubility: 159 mg/mL (≈ 609 mM)
[2]; aqueous urea solution, Ifosfamid-Endkonzentration, Harnstoff-Startkonzentration 7,0 % (G/V), Harnstoff-Endkonzentration 4,6 % (G/G)
  solubility: 169 mg/mL (≈ 647 mM)
[2]; aqueous urea solution, Ifosfamid-Endkonzentration, Harnstoff-Startkonzentration 8,0 % (G/V), Harnstoff-Endkonzentration 5,0 % (G/G)
  solubility: 172 mg/mL (≈ 659 mM)
[2]; aqueous urea solution, Ifosfamid-Endkonzentration, Harnstoff-Startkonzentration 9,0 % (G/V), Harnstoff-Endkonzentration 5,1 % (G/G)
  solubility: 173 mg/mL (≈ 663 mM)
[2]; aqueous urea solution, Ifosfamid-Endkonzentration, Harnstoff-Startkonzentration 10,0 % (G/V), Harnstoff-Endkonzentration 6,6 % (G/G)
  solubility: 370 mg/mL (≈ 1420 mM)
[2]; aqueous urea solution, Ifosfamid-Endkonzentration, Harnstoff-Startkonzentration 12,5 % (G/V), Harnstoff-Endkonzentration 7,0 % (G/G)
  solubility: 412 mg/mL (≈ 1580 mM)
[2]; aqueous urea solution, Ifosfamid-Endkonzentration, Harnstoff-Startkonzentration 15 % (G/V), Harnstoff-Endkonzentration 12,2 % (G/G)
  solubility: 462 mg/mL (≈ 1770 mM)
[2]; aqueous urea solution, Ifosfamid-Endkonzentration, Harnstoff-Startkonzentration 20 % (G/V), Harnstoff-Endkonzentration 15,8 % (G/G)
  solubility: 483 mg/mL (≈ 1850 mM)
[2]; aqueous urea solution, Ifosfamid-Endkonzentration, Harnstoff-Startkonzentration 30 % (G/V), Harnstoff-Endkonzentration 24,2 % (G/G)
  solubility: 521 mg/mL (≈ 2000 mM)
[2]; aqueous urea solution, Ifosfamid-Endkonzentration, Harnstoff-Startkonzentration 40 % (G/V), Harnstoff-Endkonzentration 34,3 % (G/G)
  solubility: 462 mg/mL (≈ 1770 mM)
[2]; aqueous urea solution, Ifosfamid-Endkonzentration, Harnstoff-Startkonzentration 50 % (G/V), Harnstoff-Endkonzentration 42,1 % (G/G)
  solubility: 443 mg/mL (≈ 1700 mM)
[2]; aqueous urea solution, Ifosfamid-Sättigungskonzentration, bei geeigneter Harnstoffkonzentration
  solubility: ~500 mg/mL (≈ 1920 mM)
[2]; Harnstoff-Startkonzentration 0 % (G/V)
  pH-Wert: 5,2
[2]; Harnstoff-Startkonzentration 1,0 % (G/V)
  pH-Wert: 5,0
[2]; Harnstoff-Startkonzentration 2,0 % (G/V)
  pH-Wert: 5,0
[2]; Harnstoff-Startkonzentration 3,0 % (G/V)
  pH-Wert: 5,0
[2]; Harnstoff-Startkonzentration 4,0 % (G/V)
  pH-Wert: 5,1
[2]; Harnstoff-Startkonzentration 5,0 % (G/V)
  pH-Wert: 5,1
[2]; Harnstoff-Startkonzentration 6,0 % (G/V)
  pH-Wert: 5,1
[2]; Harnstoff-Startkonzentration 7,0 % (G/V)
  pH-Wert: 5,1
[2]; Harnstoff-Startkonzentration 8,0 % (G/V)
  pH-Wert: 5,1
[2]; Harnstoff-Startkonzentration 9,0 % (G/V)
  pH-Wert: 5,2
[2]; Harnstoff-Startkonzentration 10,0 % (G/V)
  pH-Wert: 5,1
[2]; Harnstoff-Startkonzentration 12,5 % (G/V)
  pH-Wert: 5,0
[2]; Harnstoff-Startkonzentration 15 % (G/V)
  pH-Wert: 5,0
[2]; Harnstoff-Startkonzentration 20 % (G/V)
  pH-Wert: 5,0
[2]; Harnstoff-Startkonzentration 30 % (G/V)
  pH-Wert: 5,0
[2]; Harnstoff-Startkonzentration 40 % (G/V)
  pH-Wert: 5,0
[2]; Harnstoff-Startkonzentration 50 % (G/V)
  pH-Wert: 5,0
[2]; water, Ifosfamid-Endkonzentration, Harnstoff-Startkonzentration 0 % (G/V), Harnstoff-Endkonzentration 0 % (G/G)
  solubility: 118 mg/mL (≈ 452 mM)
[2]; [3]
  solubility: ~120 mg/mL (≈ 460 mM)

Reference: patent EP1023075B1, “LIQUID PRESENTATIONS OF OXAZAPHOSPHORINE-CONTAINING PHARMACEUTICAL PRODUCTS” (STADA ARZNEIMITTEL AG, priority 1997, dated 1999)
